Source: patent US20260138961A1, “MODULATORS OF MITOCHONDRIAL DNA REPLICATION” (Pretzel Therapeutics, Inc., priority 2022, published 2026)

Each compound was assayed against T1, POLγ W748S + E1143G (Homo sapiens, UniProt P54098, E1143G/W748S) (assay: DNA polymerization assay, W748S + E1143G mutant). Details: stimulation of polymerase activity, primed M13mp18 ssDNA, 37° C. 2 hours.
T1 sequence (P54098 1-1239 W748S/E1143G): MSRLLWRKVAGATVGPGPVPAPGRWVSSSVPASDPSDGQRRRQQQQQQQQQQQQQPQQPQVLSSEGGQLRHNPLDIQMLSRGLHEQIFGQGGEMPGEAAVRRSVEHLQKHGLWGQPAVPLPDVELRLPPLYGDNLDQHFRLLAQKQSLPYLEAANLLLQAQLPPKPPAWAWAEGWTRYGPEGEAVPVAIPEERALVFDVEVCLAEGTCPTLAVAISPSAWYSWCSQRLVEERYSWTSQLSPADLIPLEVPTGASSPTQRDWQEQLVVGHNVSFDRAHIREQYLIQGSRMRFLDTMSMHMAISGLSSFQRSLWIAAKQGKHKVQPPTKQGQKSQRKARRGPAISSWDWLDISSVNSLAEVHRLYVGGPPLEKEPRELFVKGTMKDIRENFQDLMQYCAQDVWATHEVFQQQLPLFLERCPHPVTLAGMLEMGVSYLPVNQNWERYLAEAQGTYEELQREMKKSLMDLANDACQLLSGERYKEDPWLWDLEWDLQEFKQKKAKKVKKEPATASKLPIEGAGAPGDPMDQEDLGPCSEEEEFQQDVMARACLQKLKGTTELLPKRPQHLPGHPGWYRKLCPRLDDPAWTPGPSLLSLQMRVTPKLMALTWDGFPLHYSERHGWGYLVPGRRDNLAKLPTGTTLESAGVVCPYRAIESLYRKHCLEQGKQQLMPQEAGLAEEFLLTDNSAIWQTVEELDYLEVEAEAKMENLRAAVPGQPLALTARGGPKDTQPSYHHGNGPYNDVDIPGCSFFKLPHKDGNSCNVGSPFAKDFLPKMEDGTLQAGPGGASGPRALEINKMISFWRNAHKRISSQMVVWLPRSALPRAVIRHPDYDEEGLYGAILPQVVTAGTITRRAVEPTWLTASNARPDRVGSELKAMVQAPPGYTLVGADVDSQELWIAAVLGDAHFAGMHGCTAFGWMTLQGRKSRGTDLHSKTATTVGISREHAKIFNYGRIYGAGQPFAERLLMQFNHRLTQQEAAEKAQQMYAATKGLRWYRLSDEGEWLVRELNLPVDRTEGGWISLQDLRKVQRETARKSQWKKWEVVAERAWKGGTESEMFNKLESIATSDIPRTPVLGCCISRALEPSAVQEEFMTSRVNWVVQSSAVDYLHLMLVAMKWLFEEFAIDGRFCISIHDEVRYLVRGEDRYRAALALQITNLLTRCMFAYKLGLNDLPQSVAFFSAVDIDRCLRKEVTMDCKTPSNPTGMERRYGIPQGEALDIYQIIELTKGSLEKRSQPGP
T1 sequence (Q9UHN1 1-485 partner): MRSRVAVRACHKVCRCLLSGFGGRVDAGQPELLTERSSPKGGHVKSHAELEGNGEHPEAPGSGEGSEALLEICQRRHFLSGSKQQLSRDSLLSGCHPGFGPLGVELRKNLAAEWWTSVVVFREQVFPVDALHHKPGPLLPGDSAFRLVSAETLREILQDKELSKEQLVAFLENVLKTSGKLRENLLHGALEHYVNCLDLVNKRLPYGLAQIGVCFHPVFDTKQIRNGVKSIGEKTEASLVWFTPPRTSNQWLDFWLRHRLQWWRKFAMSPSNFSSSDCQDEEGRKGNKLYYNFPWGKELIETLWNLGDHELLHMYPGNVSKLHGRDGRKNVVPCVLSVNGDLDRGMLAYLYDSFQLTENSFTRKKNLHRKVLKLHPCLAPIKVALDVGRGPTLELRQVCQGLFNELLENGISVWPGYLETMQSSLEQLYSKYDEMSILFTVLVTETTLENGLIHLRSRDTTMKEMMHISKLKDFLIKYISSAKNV
Type: biochemical

| AC50 [nM] | SMILES |
| --- | --- |
| 6000 | Cc1cc(S(=O)(=O)Nc2cccc(-c3ncc(C4CC4)s3)c2)c(C)cc1Cl [Example 76, 4-chloro-N-(3-(5-cyclopropylthiazol-2-yl)phenyl)-2,5-dimethylbenzenesulfonamide] |
| > 100000 | Cc1csc(-c2ccccc2NS(=O)(=O)c2cc(C)c(Cl)cc2C)n1 [Example 80, 4-chloro-2,5-dimethyl-N-(2-(4-methylthiazol-2-yl)phenyl)benzenesulfonamide] |
| 700 | Cc1cc(S(=O)(=O)Nc2csc(-c3ccccc3)n2)c(C)cc1Cl [Example 81, 4-chloro-2,5-dimethyl-N-(2-phenylthiazol-4-yl)benzenesulfonamide] |
| 5000 | Cc1cc(S(=O)(=O)Nc2cccc(-c3ncc(CN(C)C)s3)c2)c(C)cc1Cl [Example 87, 4-chloro-N-(3-(5-((dimethylamino)methyl)thiazol-2-yl)phenyl)-2,5-dimethylbenzenesulfonamide] |
| 800 | Cc1cc(S(=O)(=O)Nc2cccc(-c3ncc(CO)s3)c2)c(C)cc1Cl [Example 89, 4-chloro-N-(3-(5-(hydroxymethyl)thiazol-2-yl)phenyl)-2,5-dimethylbenzenesulfonamide] |
| 1000 | Cc1cc(S(=O)(=O)Nc2csc(-c3ccnn3C)n2)c(C)cc1Cl [Example 182, 4-chloro-2,5-dimethyl-N-(2-(1-methyl-1H-pyrazol-5-yl)thiazol-4-yl)benzenesulfonamide] |
